This is an account of results in US20260248131A1, “AGROCHEMICAL FORMULATIONS COMPRISING CRYSTALLINE FORM A OF 4-[(6-CHLORO-3-PYRIDYL-METHYL )(2,2-DIFL UOROETHYL )AMINO]FURAN-2(5H)-ONE” (BAYER AKTIENGESELLSCHAFT, priority 2022, published 2026).

≈ marks a conversion by molar mass, not a printed value.

The subject of data set [1] is bird cherry-oat aphid Rhopalosiphum padi. In words: Systemic efficacy of FPF FS 480 as barley seed treatment against aphids. The note with it: seed treatment with FS 480. The format is in vivo. An excerpt:
Physico-chemical properties are key drivers for systemic plant uptake and biological activity. To test the efficacy of different FPF modifications against the bird cherry-oat aphid Rhopalosiphum padi a sufficient number of barley seeds (variety “Scarlett”, thousand kernel weight: 43.6 g) were manually dressed with a defined amount of the Flupyradifurone FS480 formulated with 100% Form A, 100% Form B and a combination of 99% Form A and 1% Form B, respectively. Test concentrations were 0.15 g active ingredient per kg of seed (commercial dose rate in cereals) and 0.075 g active ingredient per kg of seed. Longitudinal boxes were filled with 5,900 g of a sandy loam soil (75.1% sand, 10.3% clay, 14.8% silt, 1.75% humus, pH 6.9) and 15 seeds per box were sown at spacing of approx. 2.5 cm and at depth of 3 cm. After sowing, boxes were watered to reach 50-70% of field capacity and covered with plastic foil until first plants were emerging. Aphid infestation was conducted at the second leaf stage by adding multiple pieces of infested leaf material to each test box. A second re-infestation was carried out at 3 days after the first infestation using methods described previously. The biological activity of tested FPF modifications was evaluated at 3 and 7 days after the initial infestation by a visual assessment of the colonized leaf area in comparison to the untreated and infested control. Results were expressed in percent efficacy. […] Growing conditions were at a constant temperature of 20° C., 50% relative humidity and 14 hours of illumination using sodium pressure lamps. The experiment comprised 3 replicates per treatment.

Another data set in a line: physchem. The data set is classed as physicochemical. On the procedure:
The water solubility of FPF polymorph A and B was determined by saturating a certain amount of demineralized water with the respective polymorph, stirring the resulting saturated suspension overnight, filtering the undissolved solid residue, and measuring the dissolved concentration of FPF in the filtrate.

`O=C1C=C(N(Cc2ccc(Cl)nc2)CC(F)F)CO1` [Polymorph A, 4-[(6-chloro-3-pyridylmethyl)(2,2-difluoroethyl)amino]furan-2(5H)-one]: the “systemic biological efficacy compared with form B” value in data set [1] (listed as FPF form A) is listed as “does not lead to a reduced biological efficacy in comparison to FPF form B”. Moreover, the “systemic biological efficacy compared with form B” value in data set [1] (listed as form A) is reported as “not reduced”. Also, the “systemic biological efficacy compared with form B” value in data set [1] (listed as polymorphic form A) was “at the same level as that of polymorphic form B”. In addition, in “physchem”, the “reduced water solubility of FPF form A” value amounted to 60%, the “water solubility compared with form B” value is given as “significantly lower than that of form B” and the “water solubility of polymorphic form A as share of that of polymorphic form B” value was found to be 60%. The amount in solution in the data set “physchem” (water, thermodynamic from solid, Water Solubility) (solubility) came to 2000 µg/mL (≈ 6.93 mM).

For the compound `O=C1C=C(N(Cc2ccc(Cl)nc2)CC(F)F)CO1` [Polymorph B, 4-[(6-chloro-3-pyridylmethyl)(2,2-difluoroethyl)amino]furan-2(5H)-one, reference compound], the “Water Solubility” value in “physchem” was determined as 3.2 g/L.

Broadly, the solubility is the concentration that dissolves in the medium under given conditions. A higher solubility goes with much dissolved substance.
